Assay type in all cases: cell-based
The target in one assay is T1, human V1aR (Homo sapiens, UniProt P37288).
T1 construct: expressed in transfected cells
As to the kind of experiment: Inhibition activity on human V1aR (Fluo-4 calcium assay, HEK293/human V1aR stably transfected cells, vasopressin 3 nM). The settings on record: calcium signal. The method, then: The inhibition effect of the compounds of the present invention on the activity of human V1aR protein expressed in HEK293/human V1aR stably transfected cells was determined by the following experimental method:
The pcDNA3.1-V1aR plasmid was transferred into HEK293 cells with the Lipofectamine® 3000 transfection reagent; G418 was added on the next day to screen, and monoclonal cell lines were selected.
(§1) HEK293/human V1aR stably transfected cells were inoculated in a 96-well plate with an inoculation density of 25,000 cells/well one day in advance. On the next day, a loading buffer containing Fluo-4 dye was formulated using the reagents in the Fluo-4 NW calcium assay kit, and the culture medium was then removed; 100 μl of the loading buffer containing Fluo-4 dye were added to each well, and the plate was incubated at 37° C. for 30 minutes. After that, the plate was moved to room temperature and equilibrated for 10 minutes. The compounds were formulated into concentration gradients of 10^6, 10^5, 10^4, 10^3, 10^2 and 10^1 nM. 1 μl of the compounds in each concentration was added to each well, and the plate was incubated at room temperature for 10 minutes. […] IC50 values of the compounds were calculated by Graphpad prism software using fluorescence signals corresponding to different concentrations.
The inhibition activity of the compounds of the present invention on human V1aR was determined by the above test, and the obtained IC50 values are shown in Table 2.

For the next assay, the target named is T2, human V1bR (Homo sapiens, UniProt P47901).
T2 construct: expressed in transfected cells; host or cells: HEK293 (G418-selected pool)
T2 sequence (P47901 1-424): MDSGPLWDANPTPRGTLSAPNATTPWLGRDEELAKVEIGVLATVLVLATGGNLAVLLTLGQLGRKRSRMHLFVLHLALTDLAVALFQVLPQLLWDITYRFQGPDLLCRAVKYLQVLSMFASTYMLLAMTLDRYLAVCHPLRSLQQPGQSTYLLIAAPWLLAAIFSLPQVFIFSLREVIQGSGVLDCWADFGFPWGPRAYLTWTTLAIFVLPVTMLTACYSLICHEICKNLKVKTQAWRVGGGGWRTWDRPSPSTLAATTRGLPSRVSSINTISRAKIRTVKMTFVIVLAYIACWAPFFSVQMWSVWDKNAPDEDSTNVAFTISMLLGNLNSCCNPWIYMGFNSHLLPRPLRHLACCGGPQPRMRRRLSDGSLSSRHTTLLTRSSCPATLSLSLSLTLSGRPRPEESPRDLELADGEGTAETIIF
As to the kind of experiment: Inhibition activity on human V1bR (Fluo-4 calcium assay, HEK293/human V1bR pool cells, vasopressin 3 nM). The note with it: calcium signal. The method, then: The inhibition effect of the compounds of the present invention on the activity of human V1bR protein expressed in HEK293/human V1bR cells was determined by the following experimental method:
The pcDNA3.1-V1bR plasmid was transferred into HEK293 cells with the Lipofectamine® 3000 transfection reagent; G418 was added on the next day, and the HEK293/human V1bR pool cell lines were obtained.
as §1, with “V1bR pool” for “V1aR stably transfected”

For the next assay, the target named is T3, human V2R (Homo sapiens, UniProt P30518).
T3 construct: expressed in transfected cells; host or cells: HEK293 (G418-selected pool)
As to the kind of experiment: Inhibition activity on human V2R (cAMP HTRF assay, HEK293/human V2R pool cells, vasopressin). The method, then: The inhibition effect of the compounds of the present invention on the activity of human V2R protein expressed in HEK293/human V2R cells was determined by the following experimental method:
The pcDNA3.1-V2R plasmid was transferred into HEK293 cells with the Lipofectamine® 3000 transfection reagent; G418 was added on the next day, and the HEK293/human V2R pool cell lines were obtained.
HEK293/human V2R pool cells were digested with the cell dissociation solution (enzyme-free), thereby dissociating the cells from the cell culture dish into individual cells. After completion, the cell solution was blown well, and centrifuged to remove the supernatant. The cells were re-suspended in the test buffer 1 (1×HBSS+20 mM HEPES+0.1% BSA) and counted. The cell density was adjusted to 1250 cells/5 μl, i.e., 2.5*10^5/ml.
The compounds were formulated into a series of concentrations of 20 mM, 6.67 mM, 2.22 mM, 0.74 mM, 0.25 mM, 0.08 mM, 27.4 μM, 9.14 μM, 3.05 μM, 1.02 μM, 0.34 μM and 0 μM (DMSO) with pure DMSO. The compounds were then formulated into a 4-fold use concentration with the test buffer 2 (test buffer 1+1 mM IBMX).
Agonist: 460 μM vasopressin was used as the mother liquor, formulated as a 2 μM solution with DMSO, which was then diluted to a 0.5 nM solution with the test buffer 2.
Standard: The first point was 20 μl of a stock solution (2848 nM), which was diluted successively to a total of eleven concentrations in a 4-fold concentration gradient with the test buffer 1 from the second point.
1. The well-mixed cells were added to a 384-well plate (5 μl/well) without changing the tip.
2. The test compounds and positive compound formulated were added (2.5 μl/well), and the tips were changed.
3. The plate was centrifuged at 1000 rpm for 1 min, shaken for 30 sec to mix well, and incubated at room temperature for 30 min.
4. The standard curve wells were added with the test buffer 2 (5 μl/well).
5. The agonist formulated was added (2.5 μl/well), and the tips were changed; the plate was centrifuged at 1000 rpm for 1 min, shaken for 30 sec to mix well, and incubated at room temperature for 30 min.
6. cAMP-d2 (a component in the cAMP dynamic 2 kit) and Anti-cAMP-Eu-Cryptate (a component in the cAMP dynamic 2 kit) were formulated in the dark, which were then mixed well with cAMP lysate (a component in the cAMP dynamic 2 kit) in a ratio of 1:4. Each well was added with the formulated cAMP-d2 solution (5 μl/well), followed by addition of Anti-cAMP-Eu-Cryptate (5 μl/well). The plate was shaken for 30 sec to mix well, and incubated in the dark at room temperature for 1 h.
4) Plate reading: The HTRF signals were read by the PheraStar multi-function microplate reader.
The data in this test was processed using the data processing software Graphpad Prism.
The inhibition activity of the compounds of the present invention on human V2R was determined by the above test, and the obtained IC50 values are shown in Table 4.
(In general: TR-FRET usually uses a lanthanide donor and a delayed reading to cut background.)

T1 sequence (P37288 whole entry): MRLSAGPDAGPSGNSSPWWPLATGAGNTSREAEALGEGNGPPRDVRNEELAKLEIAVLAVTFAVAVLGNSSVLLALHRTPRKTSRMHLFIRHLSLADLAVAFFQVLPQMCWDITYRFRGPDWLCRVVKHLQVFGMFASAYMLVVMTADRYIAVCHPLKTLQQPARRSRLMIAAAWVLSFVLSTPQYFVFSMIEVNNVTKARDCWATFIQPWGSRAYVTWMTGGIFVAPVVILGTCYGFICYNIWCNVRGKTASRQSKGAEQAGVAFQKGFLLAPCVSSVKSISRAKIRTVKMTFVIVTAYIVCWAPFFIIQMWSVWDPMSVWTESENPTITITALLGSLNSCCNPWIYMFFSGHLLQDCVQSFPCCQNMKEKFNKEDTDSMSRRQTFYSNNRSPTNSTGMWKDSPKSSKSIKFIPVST
T3 sequence (P30518 whole entry): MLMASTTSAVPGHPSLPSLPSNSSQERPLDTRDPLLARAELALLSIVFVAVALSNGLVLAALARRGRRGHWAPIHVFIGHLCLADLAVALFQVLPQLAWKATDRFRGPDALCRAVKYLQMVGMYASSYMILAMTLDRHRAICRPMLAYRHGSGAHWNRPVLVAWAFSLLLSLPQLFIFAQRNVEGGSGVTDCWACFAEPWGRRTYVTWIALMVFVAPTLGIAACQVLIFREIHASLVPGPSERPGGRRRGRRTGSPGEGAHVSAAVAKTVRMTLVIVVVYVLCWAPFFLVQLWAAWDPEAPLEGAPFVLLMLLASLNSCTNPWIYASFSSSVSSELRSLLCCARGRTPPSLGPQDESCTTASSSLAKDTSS

Consider `COc1ccc(-n2c(CO[C@H]3CCOC3)nnc2N2C[C@@H]3C[C@]3(c3ccc(F)cc3Cl)C2)cn1` [Example 3, (1S,5R)-1-(2-Chloro-4-fluorophenyl)-3-(4-(6-methoxypyridin-3-yl)-5-((((S)-tetrahydrofuran-3-yl)oxy)methyl)-4H-1,2,4-triazol-3-yl)-3-azabicyclo[3.1.0]hexane], for which the IC50 (usually the concentration needed to halve the response being measured) amounted to 7.5 µM on human V1aR, 56.7 µM at human V1bR and 23 µM at human V2R.

The values above are taken from patent US20210040073A1, “AZABICYCLO-SUBSTITUTED TRIAZOLE DERIVATIVE, PREPARATION METHOD THEREOF, AND APPLICATION OF SAME IN MEDICINE” (Jiangsu Hengrui Medicine Co., Ltd., priority 2016, published 2021).
